Values after ≈ are worked out from the molar mass of the structure shown.
Key:
Coturnix japonica = conditions: acute, oral, mortality
Daphnia magna = conditions: chronic/long-term; duration: 21 days; reproduction
Typhlodromus pyri = conditions: acute
Oncorhynchus mykiss = conditions: acute; duration: 96 hours; mortality
Tagia sp. = conditions: acute; duration: 14 days; mortality
Apis mellifera = conditions: acute; duration: 48 hours; oral; unspecified; mortality
Colinus virginianus = conditions: reproduction developmental
Canidae = conditions: chronic; duration: 1 years; oral; M/F; Dog Other; histopathology: nonneoplastic

Question: Which LC50 (Coturnix japonica; diet) does the source give for `c1coc(-c2nc3ccccc3[nH]2)c1` [Fuberidazole] here?
Answer: Its LC50 is over 930 mg/kg-day.

Question: And the LD50 (Coturnix japonica)?
Answer: Its LD50 is over 750 mg/kg.

Question: And the NOEC (Daphnia magna)?
Answer: The NOEC was 0.12 mg/L.

Question: What about the LEL (Typhlodromus pyri; duration: 7 days, mortality) of the same compound?
Answer: The LEL was 26 g/ha.

Question: What about the LEL (Typhlodromus pyri; duration: 14 days, reproduction) of the same compound?
Answer: Its LEL is 26 g/ha.

Question: What about the LC50 (Oncorhynchus mykiss) of the same compound?
Answer: Its LC50 is 0.91 µg/mL (≈ 4.94 µM).

Question: And the LC50 (Tagia sp.)?
Answer: The LC50 was over 1000 mg/kg.

Question: What about the LD50 (Apis mellifera) of the same compound?
Answer: The LD50 was over 187 µg/piece.

Question: What about the LD50 (Rattus norvegicus; acute, mortality) of the same compound?
Answer: The LD50 was over 300 mg/kg.

Question: And the NOAEL (Rattus norvegicus; developmental, development)?
Answer: Its NOAEL is 8 mg/kg-day.

Question: What about the NOAEL (Rattus norvegicus; reproduction developmental, mortality) of the same compound?
Answer: Its NOAEL is 4 mg/kg-day.

Question: And the NOEC (Colinus virginianus)?
Answer: The NOEC was over 76.9 mg/kg-day.

Question: And the NOAEL (Canidae)?
Answer: Its NOAEL is 0.72 mg/kg-day.

From EPA's ToxValDB 9.5 (doi:10.2903/j.efsa.2008.118r)
